According to patent publication US20260207581A1, “Small Molecule Inhibitor for Inflammatory Pain Inhibition” (University of Rochester, priority 2023, published 2026):
Entries after “also recorded” stand apart in the source; their conditions may differ.

Columns and labels:
[1] = tested on: TMJ tissues; test: CFA injection rat model of inflammatory TMD: swelling, uCT and histology of TMJ tissues; type: in vivo
[2] = tested on: inflammatory genes, matrix proteins, adhesion molecules and neuropeptides in TMJ tissues; test: qRT-PCR analysis of gene expression in TMJ tissues of the CFA model; type: in vivo, rat
Method: To see if this reduction in inflammation and its associated damage could provide therapeutic benefit, the ability of PFI-2 to reduce inflammatory pain was examined. Animals were injected with saline or CFA and meal duration, a proxy for pain, was examined over a span of 21 days post-injection. […] Calcitonin gene-related peptide (CGRP) localization and expression in the synovial membrane were examined by immunostaining, where it was observed that CGRP was localization in synovial cells and neurons was increased in animals treated with CFA (FIG. 4C and FIG. 4D).
Expression of Osteogenic, Chondrogenic and Inflammatory Genes in a TMD model: To generate benchmark data for functional and mechanistic studies TMJ discs, synovia, and condyles are dissected and mRNA and protein expression levels of bone marker genes measured, including collagen type I (Col I), alkaline phosphatase (Alp), Runx2, Osterix (Osx), osteocalcin (Ocn), and bone sialoprotein (Ibsp), as well as cartilage marker genes such as collagen II, Sox 9, Col X, and biglycans. To characterize the effect of the YAP upregulator PFI-2 on inflammation and osteoclast formation, the expression of inflammatory cytokines (IL-1b, IL-6, TNF-α), NF-κB, MMPs (MMP2, MMP9 and MMP13), adhesion molecules (CDH11, ICAM, Integrin β1), and osteoclastogenesis-related genes (Rank, Rankl, Opg, Trap5b, and NFATc1) is detected using quantitative RT-PCR and Western blotting as described by Walker et al. (2010). Localization of these genes in the inflamed TMJ is further specified using immunofluorescence.
Inflammatory Changes in the Expression of Neuropeptides CGRP, NPY and SP1 in vivo and in vitro: For in vivo studies, rat TMJ discs, synovial membrane, condyle, trigeminal ganglia and trigeminal nucleus caudalis are collected bilaterally from saline-or CFA-treated rats for RNA and protein isolation, and histological analysis. The expression of CGRP, NPY, TAC1, and Galanin (GAL) at gene and protein levels are measured using qRT-PCR and Western blotting. For histology, tissues are fixed in 4% paraformaldehyde and prepared for paraffin sections as described previously (Lu et al, 2016a, b). Cells and neurons positive for CGRP, NPY, SP1 (an isoform of TAC1 protein) and Gal are visualized via immunofluorescence or immunohistochemistry using antibodies against CGRP, GAL, NYP, and TAC1 (Abcam). Expression levels of these genes and the numbers of immunoreactive cells are compared between different treatment groups.

[3] = tested on: YAP1; test: YAP / Sox9 immunolocalization in TMJ discs and condylar growth plate of the CFA model; type: in vivo, rat
Method: Because of this initial success, it was further examined if PFI-2 treatment could rescue inhibition of chondrocyte maturation and return YAP expression in the condylar growth plate of animals suffering from inflammation. To test the ability to repair damage, animals were injected with saline or CFA. After inflammation, a subset of the CFA-treated animals were also injected with PFI-2. Tissue samples from each were stained with H&E, safranin O, and PCNA, YAP was detected by immunostaining, and cartilage differentiation was determined by immunostaining for Sox 9 (FIG. 3A-FIG. 3O). The samples were also examined by RT-PCR for expression levels of collagen 2, collagen 10, Mmp 13 metalloproteinase, Runx2 bone transcription factor, and Sox 9 (FIG. 3P).
Here, the role of the Hippo pathway effectors YAP and TAZ is elucidated in an inflammatory TMD models. YAP and TAZ interact with DNA-binding factors of the TEAD family in the nucleus to regulate gene expression. […] First, the expression and subcellular localization of YAP is characterized under physiological and inflammatory conditions in TMJ tissues, RSSCs and RCs. The expression pattern of the YAP protein in TMJ tissues are elucidated by immunohistochemistry using anti-YAP antibody and the expression levels of YAP mRNA and protein is determined using qRT-PCR and Western blotting. […]

[4] = tested on: inflammatory TMD pain; test: Place escape/avoidance paradigm (PEAP) pain behavior in inflammatory TMD model; type: in vivo, rat; settings: for time spent in the dark half of the PEAP chamber: CFA plus PFI-2 injection
Method: Effect of PFI-2 Mediation on Inflammatory Conditions and Pain: Tmj pain is assessed as meal duration and via Place Escape Avoidance Paradigm (PEAP)-based measures (FIG. 1, Vertebrate Justification section). Testing is performed in both male and female rats as sex differences have been observed in humans and animals. Female animals are tested for the estrous cycle and the results are reported for the di-estrus, estrus, and pro-estrus phases (Kramer, Bellinger, 2009).
Peap Testing: the Chamber Used for the Place Escape Avoidance Paradigm (PEAP) testing is a 30 cm×30 cm acrylic box in which half the box is covered in black cloth. Each individual rat is placed into the chamber; due to their nocturnal circadian rhythm, rodents prefer the dark side of the chamber. Rats on the dark side of the chamber receive a stimulus at the injected side, whereas rats with their head on the clear side of the chamber are stimulated on the contralateral non-injected side with a 60 g filament every 15 seconds. The stimulus is administered below the eye and caudal to the whisker pad. The time spent on the dark side of the box is recorded in 5 min bins, testing is performed for a total of 30 min on the test day and thereafter on a one day a week basis for 8 weeks as previously described (Stinson et al. 2017; 2019).
Injection of PFI-2-Col I, PFI-2-decm Hydrogel and PFI-2-exosome solution into the TMJ: Four groups (SV, SP, CV, and CP) receive injections of the saline plus carrier, saline plus PFI-2 carrier, CFA plus carrier, or CFA plus PFI-2 carrier, respectively. The TMJ injection procedure is described in FIG. 1. Forty-eight hours after the injection of saline or CFA solution, PFI-2 (10 μM) in a carrier, or the carrier alone, is injected every two days, or once within 10 days. The injection times and effect duration of PFI-2 on both inflammatory degeneration and pain are optimized.
PEAP behavior of animals was investigated after administration of saline, CFA, or CFA and a PFI-2 carried by either a Col I hydrogel or a dECM hydrogel.

[5] = target: T1, SETD7 (Rattus norvegicus, UniProt A0A8I6A0F7); test: SETD7 and YAP localization and protein methylation in TNF-α treated RSSCs; type: cell-based; settings: RSSCs treated with TNF-α
T1 construct: endogenous in cells; host or cells: primary rat synovial mesenchymal stem cells (RSSCs)
T1 sequence (A0A8I6A0F7 1-367): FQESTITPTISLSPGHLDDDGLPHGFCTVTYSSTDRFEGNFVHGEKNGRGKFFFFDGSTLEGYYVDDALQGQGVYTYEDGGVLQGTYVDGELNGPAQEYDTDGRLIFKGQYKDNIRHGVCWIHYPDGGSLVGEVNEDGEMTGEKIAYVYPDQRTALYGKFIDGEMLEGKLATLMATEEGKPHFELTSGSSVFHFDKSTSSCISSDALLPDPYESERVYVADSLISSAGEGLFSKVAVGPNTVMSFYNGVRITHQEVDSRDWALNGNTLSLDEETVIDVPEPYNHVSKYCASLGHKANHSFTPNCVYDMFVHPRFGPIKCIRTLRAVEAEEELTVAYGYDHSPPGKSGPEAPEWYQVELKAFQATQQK
Method: As a first step, the expression and localization of SETD7 and YAP are examined in RCs and RSSCs at the mRNA and protein level under physiological and inflammatory conditions. RCs and RSSCs are cultured with or without TNF-α for 6, 12, and 24 hours. Proteins and mRNAs from cultured cells are isolated for RT-PCR and Western Blot analyses. The localization of SETD7 and YAP in relationship toward each other is visualized by immunofluorescence, and the methylation levels and distribution of YAP in nuclei and cytoplasm are determined by Western blotting using anti-SETD7 and anti-YAP antibodies (Abcam). To determine whether YAP and SETD7 interact, co-immunoprecipitation assays is performed, and the degree of interaction between SETD7 and YAP is compared between TNF-α-treated cells and control cells (Ito et al. 2011).
Rat synovial mesenchymal stem cells (RSSCs) were cultured and examined for SETD7 nuclear localization.

[6] = tested on: RSSCs; test: BrdU labeling and β-gal senescence staining of TNF-α treated RSSCs; type: cell-based, rat; settings: RSSCs treated with TNFα
[7] = tested on: TNFα-induced cell infiltration; test: Subcutaneous implantation of coated collagen sponges; type: in vivo; settings: sponges coated with TNFα plus PFI-2
Description: In vivo analysis was examined by subcutaneous implantation of collagen sponges coated with PBS, TNF-α, or TNF-α and PFI-2.

[8] = tested on: IL-1β expression; test: Cultured condyle organs treated with IL-6, IL-1β immunostaining; type: cell-based; settings: IL-6 plus PFI-2
[9] = tested on: SETD1, IL-6 and MMP2 expression; test: qRT-PCR and Western blotting of selected inflammatory genes under TNFα; type: cell-based, rat
[10] = target: T2, SETD7 (Homo sapiens, UniProt Q8WTS6); settings: Francis et al. 2018; cited from earlier work
T2 sequence (Q8WTS6 1-366): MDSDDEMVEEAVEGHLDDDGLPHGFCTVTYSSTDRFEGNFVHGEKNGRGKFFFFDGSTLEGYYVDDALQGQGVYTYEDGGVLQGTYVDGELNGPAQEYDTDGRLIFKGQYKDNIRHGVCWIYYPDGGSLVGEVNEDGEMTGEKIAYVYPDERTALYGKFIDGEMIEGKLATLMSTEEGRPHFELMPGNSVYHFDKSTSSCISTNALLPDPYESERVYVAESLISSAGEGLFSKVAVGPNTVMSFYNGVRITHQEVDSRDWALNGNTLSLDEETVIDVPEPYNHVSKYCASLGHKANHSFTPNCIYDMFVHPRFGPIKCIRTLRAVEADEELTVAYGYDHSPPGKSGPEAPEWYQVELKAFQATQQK

[11] = PFI-2 injected following CFA induction of inflammatory conditions

For `O=C([C@@H](Cc1cccc(C(F)(F)F)c1)NS(=O)(=O)c1cc(F)c2c(c1)CCNC2)N1CCCC1` [PFI-2], the “inflammation-induced retardation of chondrocyte differentiation / condylar growth plate structure” value [1, 11] was “able to reverse it; also recorded: restored condyle growth plate structure and function; also recorded: reversed”, the “bone volume, mechanical properties and thickness of functional condyle layers” value ([1]; inflammatory conditions, three PFI-2 delivery modalities) was “restores outcomes to near-physiological values” and the “regional swelling / distance between the two ear tragi” value ([1]; rats, 48 hours after injection, CFA-induced (10% increase with CFA)) was “no swelling was observed”. For the same compound, the “collagen fibers in the TMJ disc (Pico Sirius red staining)” value ([1]; rats, CFA model) was “lightened; also recorded: conversion to light red, thinner fibers”, the “structure and function of fibrocartilage in the TMJ (H&E)” value ([1]; rats, CFA model) was “rescued the structure and function of fibrocartilage” and the “thickness of the fibrous and proliferative cell layers / hypertrophic zones (H&E)” value ([1]; rats, CFA model) was “rescued; also recorded: reduced”. For the same compound, the “TMJ disc thickening and fusion with the condyle (H&E)” value ([1]; rats, CFA model, paraffin-embedded TMJ tissues) was “rescued; also recorded: detachment of the TMJ disc and condyle”, the “condylar bone volume and joint space between temporal fossa and condyle (uCT)” value ([1]; rats, CFA plus PFI-2 injection) was “rescued” and the “fibrous adhesion of TMJ disc and condylar surface (Masson trichrome)” value ([1]; rats, CFA-induced inflammation) was “prevented the attachment; also recorded: released fibrous adhesion; also recorded: de-attached the TMJ disc from the condyle”. The “expression of CGRP, NPY and TAC in TMJ tissues (qRT-PCR)” value ([2]; CFA-PFI-treated (CP) vs CFA-treated (CV)) was “reduced to near-normal levels”, the “expression of CGRP, NPY and TAC in TMJ tissues (qRT-PCR)” value ([2]; CFA-PFI-treated (CP) vs CFA-treated (CV), listed as PFI) was “almost reduced to normal levels” and the “inflammatory gene / cytokine expression in TMD tissues (qRT-PCR)” value ([2]; rats, CFA model) was “inhibited the expression of inflammatory cytokines; also recorded: downregulated inflammatory gene expression”. For the same compound, the “matrix protein and adhesion molecule expression in TMJ tissues (qRT-PCR)” value ([2]; rats, CFA-PFI-treated (CP) vs CFA-treated (CV)) was “reversed the upregulation”, the “YAP expression and localization in the condylar growth plate” value [3, 11] was “rebalance YAP1 expression; also recorded: re-localized YAP1 and SOX9 proteins; also recorded: returned YAP expression” and the “YAP1 immunolocalization in TMJ discs” value ([3]; rats, CFA model) was “translocated YAP into nuclei”. The “time spent in the dark half of the PEAP chamber” value ([4]; collagen gel (Col I hydrogel) as carrier) was “significantly rescued; also recorded: significantly increased”, the “time spent in the dark half of the PEAP chamber” value ([4]; dECM hydrogel as carrier, compared with collagen carrier) was “far more significant; also recorded: further improved” and the inflammatory pain ([4]; inflammatory TMD model) was “greatly reduced pain; also recorded: reduction in inflammatory pain; also recorded: reduced inflammatory pain”. The “time on the dark side of PEAP chambers” value ([4]; mice subjected to inflammatory temporo-mandibular joint pain) was “dramatically reduced time”, the SETD7 nuclear localization [5] was “blocked the effect of TNF-α on SETD7 nuclear localization” and the “global protein methylation levels in whole cell lysates (Western blot)” value [5] was “reduces methylation; also recorded: inhibited this effect”. For the same compound, the “BrdU positive proliferating cells” value [6] was “restored the proliferative potential of inflammation-compromised cells; also recorded: restored cellular proliferation”, the “β-gal+ cell senescence” value [6] was “inhibited TNFα-induced cell senescence” and the “cell infiltration into collagen sponges” value [7] was “reversed inflammatory cell infiltration in tissue implants; also recorded: reversed this effect”. For the same compound, the “extracellular matrix remodeling in collagen sponges” value [7] was “promoted extracellular matrix remodeling; also recorded: promoted ECM remodeling”, the “IL-1β expression (immunostaining)” value [8] was “inhibited the expression of IL-18; also recorded: inhibited IL-1β expression” and the “swelling of the articular surface (thickness of fibrous and proliferative cell zones)” value [8] was “reversed the swelling of the articular surface”. For the same compound, the “TNFα-induced gene dysregulation (Western blotting)” value [9] was “confirmed”, the “TNFα-induced upregulation of SETD1, IL-6 and MMP2 expression (qRT-PCR)” value ([9]; PFI-2 at 1, 10, and 50 μM) was “inhibited by treatment with PFI-2 in a dose-dependent manner; also recorded: inhibited TNFα-induced upregulation in a dose-dependent manner” and the “inflammation and tissue regeneration in periodontal diseases” value [10] was “suppresses inflammation and promotes tissue regeneration”.
